Drawing on ChEMBL document CHEMBL5653615 (J Biol Chem, 2013), this text covers inhibition for three molecules.

Each structure is given as a SMILES string. The source made the active and inactive calls. The calls are words filed in the database; no cut-off is given here.

Experiment [1] concerns the target Mast/stem cell growth factor receptor Kit (Homo sapiens) (UniProt P10721). Kind of experiment: Inhibition of human c-Kit at 1.82 nM by HotSpot assay relative to control.
Experiment [2] deals with Dual specificity tyrosine-phosphorylation-regulated kinase 1B (Homo sapiens) (UniProt Q9Y463). In words: Inhibition of human DYRK1B at 1.82 nM by HotSpot assay relative to control.
Experiment [3] deals with T1, Ephrin type-A receptor 1 (Homo sapiens) (UniProt P21709).
T1 sequence (whole entry): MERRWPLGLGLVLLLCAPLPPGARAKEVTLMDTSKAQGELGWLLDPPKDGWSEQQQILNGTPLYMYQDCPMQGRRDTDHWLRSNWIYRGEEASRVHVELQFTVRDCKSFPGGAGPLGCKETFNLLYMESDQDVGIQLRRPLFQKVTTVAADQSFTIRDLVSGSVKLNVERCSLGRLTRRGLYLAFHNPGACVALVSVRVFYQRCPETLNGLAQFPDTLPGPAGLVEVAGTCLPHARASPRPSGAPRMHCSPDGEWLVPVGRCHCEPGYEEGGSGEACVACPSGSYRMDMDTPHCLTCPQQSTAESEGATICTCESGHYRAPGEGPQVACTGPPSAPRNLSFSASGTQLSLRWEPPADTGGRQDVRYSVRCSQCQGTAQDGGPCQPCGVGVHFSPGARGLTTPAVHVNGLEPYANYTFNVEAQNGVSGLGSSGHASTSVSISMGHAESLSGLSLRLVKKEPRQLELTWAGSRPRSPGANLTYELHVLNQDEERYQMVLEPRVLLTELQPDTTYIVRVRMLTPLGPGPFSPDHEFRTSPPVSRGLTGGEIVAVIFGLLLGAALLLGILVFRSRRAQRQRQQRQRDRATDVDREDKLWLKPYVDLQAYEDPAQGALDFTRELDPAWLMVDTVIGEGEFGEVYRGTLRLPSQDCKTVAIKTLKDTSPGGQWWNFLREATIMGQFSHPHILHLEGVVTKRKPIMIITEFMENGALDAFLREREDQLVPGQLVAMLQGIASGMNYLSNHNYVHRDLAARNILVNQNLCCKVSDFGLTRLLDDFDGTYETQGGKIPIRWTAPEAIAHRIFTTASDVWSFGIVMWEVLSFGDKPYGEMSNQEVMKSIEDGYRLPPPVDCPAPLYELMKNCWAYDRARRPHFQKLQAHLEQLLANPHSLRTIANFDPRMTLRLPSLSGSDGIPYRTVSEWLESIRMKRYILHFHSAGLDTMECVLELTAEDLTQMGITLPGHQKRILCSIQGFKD
Kind of experiment: Inhibition of human EPHA1 at 1.82 nM by HotSpot assay relative to control.

Experiment [4] concerns the target G protein-coupled receptor kinase 5 (Homo sapiens) (UniProt P34947). Kind of experiment: Inhibition of human GRK5 at 1.82 nM by HotSpot assay relative to control.
In experiment [5] the target is Tyrosine-protein kinase HCK (Homo sapiens) (UniProt P08631). Kind of experiment: Inhibition of human HCK at 1.82 nM by HotSpot assay relative to control.
In experiment [6] the target is Mitogen-activated protein kinase kinase kinase 10 (Homo sapiens) (UniProt Q02779). In words: Inhibition of human MAP3K10 at 1.82 nM by HotSpot assay relative to control.
Experiment [7] has as its target Serine/threonine-protein kinase PAK 5 (Homo sapiens) (UniProt Q9P286). Kind of experiment: Inhibition of human PAK5 at 1.82 nM by HotSpot assay relative to control.
The target in experiment [8] is Serine/threonine-protein kinase PLK1 (Homo sapiens) (UniProt P53350). Kind of experiment: Inhibition of human PLK1 at 1.82 nM by HotSpot assay relative to control.
The target of experiment [9] is Insulin receptor (Homo sapiens) (UniProt P06213). In words: Inhibition of wild-type human Insulin receptor autophosphorylation in CHO-K1 cell lysate at 10 uM for 30 mins on ice followed by insulin stimulation for 10 mins by Western blot analysis. Type of experiment: subcellular. Particulars: time 40.0 min. A general note: In western blotting, separated proteins are transferred to a membrane and probed.

Experiment [10] addresses Tyrosine-protein kinase receptor UFO (Homo sapiens) (UniProt P30530). Kind of experiment: Inhibition of human AXL at 18.6 nM by HotSpot assay relative to control.
In experiment [11] the target is G protein-coupled receptor kinase 6 (Homo sapiens) (UniProt P43250). Kind of experiment: Inhibition of human GRK6 at 18.6 nM by HotSpot assay relative to control.
The target of experiment [12] is T2, Mitogen-activated protein kinase kinase kinase 2 (Homo sapiens) (UniProt Q9Y2U5).
T2 sequence (whole entry): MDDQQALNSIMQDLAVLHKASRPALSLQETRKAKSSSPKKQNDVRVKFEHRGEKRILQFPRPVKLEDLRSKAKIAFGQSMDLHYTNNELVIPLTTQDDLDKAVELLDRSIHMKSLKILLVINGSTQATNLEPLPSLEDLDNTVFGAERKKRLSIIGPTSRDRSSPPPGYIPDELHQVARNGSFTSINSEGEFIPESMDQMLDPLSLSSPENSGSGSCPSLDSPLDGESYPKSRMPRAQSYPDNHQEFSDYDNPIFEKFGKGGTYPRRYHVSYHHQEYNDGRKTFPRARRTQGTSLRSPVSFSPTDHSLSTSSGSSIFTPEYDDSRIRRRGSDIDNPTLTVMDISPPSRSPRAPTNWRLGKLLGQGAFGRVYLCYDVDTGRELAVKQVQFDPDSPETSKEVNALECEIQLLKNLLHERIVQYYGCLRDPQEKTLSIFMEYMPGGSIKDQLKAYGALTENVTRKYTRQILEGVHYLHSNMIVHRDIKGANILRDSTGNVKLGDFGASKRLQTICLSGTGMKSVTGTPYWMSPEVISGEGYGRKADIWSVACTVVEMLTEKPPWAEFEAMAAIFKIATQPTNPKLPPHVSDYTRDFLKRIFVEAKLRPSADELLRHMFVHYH
In words: Inhibition of human MEKK2 at 18.6 nM by HotSpot assay relative to control.

Experiment [13] has as its target Ribosomal protein S6 kinase alpha-4 (Homo sapiens) (UniProt O75676). Kind of experiment: Inhibition of human RPS6KA4 at 18.6 nM by HotSpot assay relative to control.
The target of experiment [14] is RAF proto-oncogene serine/threonine-protein kinase (Homo sapiens) (UniProt P04049). Kind of experiment: Inhibition of human RAF1 at 18.6 nM by HotSpot assay relative to control.
Experiment [15] deals with NT-3 growth factor receptor (Homo sapiens) (UniProt Q16288). Kind of experiment: Inhibition of human TRKC at 18.6 nM by HotSpot assay relative to control.
Experiment [16] addresses Serine/threonine-protein kinase WNK2 (Homo sapiens) (UniProt Q9Y3S1). In words: Inhibition of human WNK2 at 18.6 nM by HotSpot assay relative to control.

Chain of G protein-coupled receptor kinase 6 (Homo sapiens) (P43250 whole entry, looked up): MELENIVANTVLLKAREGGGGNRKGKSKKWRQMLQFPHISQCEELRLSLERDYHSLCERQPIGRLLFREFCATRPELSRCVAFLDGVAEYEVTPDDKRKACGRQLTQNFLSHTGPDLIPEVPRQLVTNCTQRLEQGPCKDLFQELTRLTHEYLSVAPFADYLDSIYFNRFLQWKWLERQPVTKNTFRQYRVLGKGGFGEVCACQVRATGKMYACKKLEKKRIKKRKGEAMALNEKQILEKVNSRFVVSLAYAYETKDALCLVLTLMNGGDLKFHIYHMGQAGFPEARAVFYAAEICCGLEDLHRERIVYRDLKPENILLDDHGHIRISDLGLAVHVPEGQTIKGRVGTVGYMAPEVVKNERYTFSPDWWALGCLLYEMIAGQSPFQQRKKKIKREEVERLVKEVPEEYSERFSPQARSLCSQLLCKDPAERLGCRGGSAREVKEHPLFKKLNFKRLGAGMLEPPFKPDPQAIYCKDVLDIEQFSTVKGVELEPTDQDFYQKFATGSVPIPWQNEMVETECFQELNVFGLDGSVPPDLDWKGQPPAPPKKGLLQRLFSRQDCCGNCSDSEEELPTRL
Chain of Serine/threonine-protein kinase WNK2 (Homo sapiens) (Q9Y3S1 whole entry): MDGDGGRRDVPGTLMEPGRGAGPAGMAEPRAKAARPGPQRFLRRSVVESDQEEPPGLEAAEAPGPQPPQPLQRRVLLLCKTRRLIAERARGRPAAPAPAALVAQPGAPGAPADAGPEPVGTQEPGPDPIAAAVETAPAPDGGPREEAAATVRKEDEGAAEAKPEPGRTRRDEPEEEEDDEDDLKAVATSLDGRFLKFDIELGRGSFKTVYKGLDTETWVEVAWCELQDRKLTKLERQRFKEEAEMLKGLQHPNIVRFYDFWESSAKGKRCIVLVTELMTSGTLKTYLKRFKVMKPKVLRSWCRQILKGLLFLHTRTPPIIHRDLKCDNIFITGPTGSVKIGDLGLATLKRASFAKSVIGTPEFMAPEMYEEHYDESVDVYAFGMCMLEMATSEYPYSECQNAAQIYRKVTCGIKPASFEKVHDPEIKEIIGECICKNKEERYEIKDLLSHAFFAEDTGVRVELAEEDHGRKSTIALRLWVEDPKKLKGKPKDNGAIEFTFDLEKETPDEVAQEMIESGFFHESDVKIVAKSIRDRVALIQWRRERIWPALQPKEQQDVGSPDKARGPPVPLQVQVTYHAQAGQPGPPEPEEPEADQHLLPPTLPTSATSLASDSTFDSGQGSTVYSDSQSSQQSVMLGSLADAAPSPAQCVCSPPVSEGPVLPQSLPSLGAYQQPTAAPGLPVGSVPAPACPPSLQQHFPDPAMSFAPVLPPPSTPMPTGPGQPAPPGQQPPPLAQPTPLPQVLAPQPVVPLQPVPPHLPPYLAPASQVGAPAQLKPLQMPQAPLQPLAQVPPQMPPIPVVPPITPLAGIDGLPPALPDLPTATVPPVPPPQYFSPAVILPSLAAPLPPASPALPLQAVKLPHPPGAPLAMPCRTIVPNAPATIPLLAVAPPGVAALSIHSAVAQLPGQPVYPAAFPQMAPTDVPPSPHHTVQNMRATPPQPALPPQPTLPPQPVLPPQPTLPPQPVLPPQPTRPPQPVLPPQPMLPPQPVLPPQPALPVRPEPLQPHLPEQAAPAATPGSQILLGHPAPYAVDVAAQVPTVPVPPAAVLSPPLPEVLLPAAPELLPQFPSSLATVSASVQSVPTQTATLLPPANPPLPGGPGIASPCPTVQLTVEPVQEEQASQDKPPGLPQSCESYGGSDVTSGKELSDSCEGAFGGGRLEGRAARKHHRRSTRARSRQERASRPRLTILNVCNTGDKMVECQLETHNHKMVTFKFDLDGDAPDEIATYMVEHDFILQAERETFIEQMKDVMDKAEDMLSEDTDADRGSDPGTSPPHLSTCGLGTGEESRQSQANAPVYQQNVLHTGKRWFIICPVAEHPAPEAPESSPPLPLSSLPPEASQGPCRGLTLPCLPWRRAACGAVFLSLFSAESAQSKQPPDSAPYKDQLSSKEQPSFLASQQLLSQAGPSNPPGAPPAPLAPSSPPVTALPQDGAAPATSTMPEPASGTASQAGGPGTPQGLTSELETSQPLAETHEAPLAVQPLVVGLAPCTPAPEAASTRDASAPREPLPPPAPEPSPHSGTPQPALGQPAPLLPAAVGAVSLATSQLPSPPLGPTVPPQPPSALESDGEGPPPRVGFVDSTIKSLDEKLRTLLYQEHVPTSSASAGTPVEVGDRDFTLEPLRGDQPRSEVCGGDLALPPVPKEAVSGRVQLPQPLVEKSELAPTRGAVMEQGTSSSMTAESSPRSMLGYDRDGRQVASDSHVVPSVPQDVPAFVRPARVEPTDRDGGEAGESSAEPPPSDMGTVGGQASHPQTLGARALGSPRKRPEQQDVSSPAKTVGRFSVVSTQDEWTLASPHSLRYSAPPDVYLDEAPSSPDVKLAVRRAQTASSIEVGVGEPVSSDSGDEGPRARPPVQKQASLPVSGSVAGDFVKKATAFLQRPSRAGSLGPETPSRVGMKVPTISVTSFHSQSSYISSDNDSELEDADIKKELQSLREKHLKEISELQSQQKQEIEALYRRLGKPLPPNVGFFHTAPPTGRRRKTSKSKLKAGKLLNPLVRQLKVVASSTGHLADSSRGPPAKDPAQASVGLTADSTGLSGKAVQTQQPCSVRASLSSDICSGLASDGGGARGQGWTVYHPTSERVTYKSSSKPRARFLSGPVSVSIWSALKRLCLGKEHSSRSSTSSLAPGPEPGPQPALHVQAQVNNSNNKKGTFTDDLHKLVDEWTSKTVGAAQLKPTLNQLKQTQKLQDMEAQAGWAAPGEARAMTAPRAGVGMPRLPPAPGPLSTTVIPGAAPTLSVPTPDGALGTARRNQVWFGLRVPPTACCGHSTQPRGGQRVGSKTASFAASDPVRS
Chain of Mitogen-activated protein kinase kinase kinase 10 (Homo sapiens) (Q02779 whole entry, looked up): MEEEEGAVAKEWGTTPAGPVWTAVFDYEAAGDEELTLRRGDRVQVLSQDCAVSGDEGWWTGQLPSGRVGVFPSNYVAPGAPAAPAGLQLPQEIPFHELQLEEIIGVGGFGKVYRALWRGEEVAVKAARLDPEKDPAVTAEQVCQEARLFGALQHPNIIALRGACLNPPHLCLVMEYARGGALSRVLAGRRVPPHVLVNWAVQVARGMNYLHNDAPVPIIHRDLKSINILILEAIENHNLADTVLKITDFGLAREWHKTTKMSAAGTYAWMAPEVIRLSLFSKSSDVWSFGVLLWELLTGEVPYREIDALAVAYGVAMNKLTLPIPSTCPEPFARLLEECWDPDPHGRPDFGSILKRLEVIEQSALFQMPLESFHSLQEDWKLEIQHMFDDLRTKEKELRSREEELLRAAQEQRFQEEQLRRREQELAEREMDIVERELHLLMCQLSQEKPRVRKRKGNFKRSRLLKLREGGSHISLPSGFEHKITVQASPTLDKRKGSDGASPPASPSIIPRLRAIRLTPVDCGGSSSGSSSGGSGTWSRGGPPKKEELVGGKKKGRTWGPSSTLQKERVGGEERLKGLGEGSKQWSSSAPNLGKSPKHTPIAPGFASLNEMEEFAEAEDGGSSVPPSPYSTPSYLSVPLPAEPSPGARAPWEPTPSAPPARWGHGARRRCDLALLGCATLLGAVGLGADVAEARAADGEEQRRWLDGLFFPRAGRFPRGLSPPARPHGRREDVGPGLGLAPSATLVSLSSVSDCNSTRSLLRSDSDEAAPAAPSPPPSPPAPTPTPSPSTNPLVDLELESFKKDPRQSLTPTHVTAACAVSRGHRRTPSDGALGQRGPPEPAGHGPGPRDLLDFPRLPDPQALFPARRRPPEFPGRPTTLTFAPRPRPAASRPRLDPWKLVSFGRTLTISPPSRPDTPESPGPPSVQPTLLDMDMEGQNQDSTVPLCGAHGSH
Chain of Tyrosine-protein kinase HCK (Homo sapiens) (P08631 2-526 limits assumed): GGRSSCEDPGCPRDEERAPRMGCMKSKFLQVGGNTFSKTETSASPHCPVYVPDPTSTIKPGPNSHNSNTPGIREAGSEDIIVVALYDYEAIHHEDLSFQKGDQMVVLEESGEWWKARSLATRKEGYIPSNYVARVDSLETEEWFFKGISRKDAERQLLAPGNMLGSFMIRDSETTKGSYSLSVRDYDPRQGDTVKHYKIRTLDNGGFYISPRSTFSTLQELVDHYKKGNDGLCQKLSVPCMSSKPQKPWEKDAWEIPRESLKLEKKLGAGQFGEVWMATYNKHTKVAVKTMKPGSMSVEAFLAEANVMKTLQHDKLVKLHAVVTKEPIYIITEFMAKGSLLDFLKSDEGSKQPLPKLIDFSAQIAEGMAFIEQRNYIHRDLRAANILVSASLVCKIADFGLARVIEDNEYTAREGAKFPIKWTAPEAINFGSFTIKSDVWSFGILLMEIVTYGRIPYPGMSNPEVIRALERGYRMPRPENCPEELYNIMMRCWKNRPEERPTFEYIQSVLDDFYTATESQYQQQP
Chain of RAF proto-oncogene serine/threonine-protein kinase (Homo sapiens) (P04049 whole entry): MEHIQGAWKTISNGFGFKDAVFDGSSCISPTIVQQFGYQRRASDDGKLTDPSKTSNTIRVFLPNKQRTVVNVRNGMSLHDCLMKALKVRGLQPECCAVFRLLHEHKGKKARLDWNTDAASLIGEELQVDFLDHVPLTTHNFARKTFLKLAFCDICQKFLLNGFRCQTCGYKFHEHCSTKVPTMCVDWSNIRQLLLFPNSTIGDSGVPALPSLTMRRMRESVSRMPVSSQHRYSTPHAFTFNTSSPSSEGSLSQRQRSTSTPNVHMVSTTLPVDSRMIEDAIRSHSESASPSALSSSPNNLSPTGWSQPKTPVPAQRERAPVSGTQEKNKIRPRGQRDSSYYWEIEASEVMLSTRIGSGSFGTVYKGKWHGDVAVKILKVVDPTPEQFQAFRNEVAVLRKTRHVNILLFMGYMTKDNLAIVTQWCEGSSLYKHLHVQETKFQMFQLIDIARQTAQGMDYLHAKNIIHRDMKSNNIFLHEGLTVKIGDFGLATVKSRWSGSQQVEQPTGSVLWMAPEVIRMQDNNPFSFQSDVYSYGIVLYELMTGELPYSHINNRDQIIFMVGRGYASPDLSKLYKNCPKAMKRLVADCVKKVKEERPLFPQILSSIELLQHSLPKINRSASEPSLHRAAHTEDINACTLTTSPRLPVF

Broadly, the inhibition is the drop in the measured response relative to a control, in per cent. As for `C[C@@]1(C(=O)Nc2ccc(F)nc2)CCCN1c1nc(Nc2cc(C3CC3)n[nH]2)c2cccn2n1`, the inhibition in experiment [1] is 2.48%; in experiment [2], -1.57%; in [3], -4.67%; in experiment [4], 1.88%; in [5], 9.36%; in experiment [6], -1.81%. Further, the inhibition in [7] was -4.48%; in [8] it was -4.97%.
Turning to `Oc1n[nH]c2nnc(-c3c(-c4ccccc4)nn4ccccc34)cc12`, the inhibition entry in experiment [9] was “Active”.
Turning to `C[C@]1(O)C[C@@H](c2nc(-c3ccc4ccc(-c5ccccc5)nc4c3)c3c(N)nccn32)C1`, the inhibition in [10] is 3.94%; in experiment [11], 3.48%; in [12] it was -2.2%; in experiment [13], -2.53%; in [14] it was -5.79%; in experiment [15], 0.03%. Further, the inhibition in experiment [16] is -2.52%.
